Read-outs that look alike come from different tables or passages of the source.
Tests used:
Calu-1 = assay: CellTiterGlo Cell Proliferation Assay, Calu-1; type: cell-based; conditions: Homo sapiens, KRas G12C, Lung, 96 hr
Description: (§1) A panel of tumor cell lines harboring KRas G12C or other KRas mutations are collected (Table 6). All cell lines are from ATCC or other sources indicated.
(§2) Typically cells are cultured in RPMI1640 or Dulbecco's modified Eagle's medium (DMEM, GIBCO) supplemented with 10% FBS (GIBCO, Invitrogen). For 2D culture cells (4×10^3/well) maintained in growth medium described above, are plated onto 96 well tissue culture plates Corning® Cat. 3603) a day before the treatment. For 3D culture 8000 cells/well are seeded onto 96 well ultra-low attachment tissue culture plates (Corning, #3474). The cells are treated compound for 96 hr, and then are analyzed for viability using the CellTiterGlo® Luminescent Cell Viability Assay® (Promega #G7572 for 2D and Promega #G9683 for 3D cultures) according to manufacturer's instructions and an EnVision™ plate reader. Nonlinear regression and sigmoidal dose-response curves are used to calculate the half maximal inhibitory concentration (IC50) with GraphPad Prism 4® software.

H460 = assay: CellTiterGlo Cell Proliferation Assay, H460; type: cell-based; conditions: Homo sapiens, NCI-H460, KRas Q61H, lung, 96 hr
Description: as §1, §2

H441 = assay: CellTiterGlo Cell Proliferation Assay, H441; type: cell-based; conditions: Homo sapiens, NCI-H441, KRas G12V, lung, 96 hr
Description: as §1, §2

H358 xenograft = assay: Anti-tumor growth activity, lung cancer H358 xenograft mouse model; type: in vivo; conditions: for Tumor Growth Inhibition (%) or Regression (−%): 28 Day, negative = regression
Description: (§3) To evaluate in vivo target inhibition and anti-tumor efficacy of a compound, Human lung cancer cells, H358 or H2122 are implanted into nude mice xenograft tumor models. Either H358 or H2122 cells (10×10^6 in a 1:1 Matrigel® mix, 0.2 mL total volume) are implanted by subcutaneous injection in hind leg of nude female mice (Harlan Laboratories). A total of 5 mice each group are used for efficacy study, and a total of 3-4 mice each group are used for target engagement and PD study. Treatment is initiated with oral administration (gavage) of a test compound or vehicle (20% Captisol®, 25 mM phosphate, pH 2.0 in 0.2 mL volume when the tumor size reaches approximately […]. Tumor growth and body weight are monitored over time to evaluate efficacy and signs of toxicity. Bidimensional measurements of tumors are performed twice a week and tumor volumes are calculated based on mid-axis length and mid-axis width. Tumor volume data are transformed to a log scale to equalize variance across time and treatment groups. The log volume data are analyzed with a two-way repeated measures analysis of variance by time and treatment using the mixed procedures in SAS software (version 8.2). The correlation model for the repeated measures is spatial power. Treated groups are compared to the control group at each time point. The mixed procedure is also used separately for each treatment group to calculate adjusted means and standard errors at each time point. Both analyses account for the autocorrelation within each animal. The adjusted means and standard errors are plotted for each treatment group versus time.
H358 lung tumor cells (10×10^6) are implanted by subcutaneous injection in hind leg of nude female mice (Taconic Biosciences).

[1] = tested on: pERK in H358 xenograft tumors; assay: In vivo target inhibition/PD, H358 xenograft, pERK; design: species or system mouse; conditions: for inhibition at 10 mg/kg: 10 mg/kg single dose; for inhibition at 30 mg/kg: 30 mg/kg single dose
Description: as §3
For in vivo target inhibition and PD analysis, tumors are ground by mortar and pestle on dry ice and tumor fragments are added to 800 μL of lysis buffer containing 1% Triton X100, 25 mM Tris pH 7.5, 150 mM NaCl, 1 mM EDTA, and 1 mM EGTA with Halt protease and phosphatase inhibitor cocktail (Thermo Scientific, cat. no. 1861281) in lysing matrix D tubes (MP Biomedical®, cat. no. 6913-500) with one additional large bead (MP Biomedical® ¼″ ceramic sphere bead cat. no. 6540-412) per tube. Tumor fragments are homogenized in a Thermo Bio101® fast prep (FP120) at setting 4 for […] while cold for a total of 2 times. Lysates are spun at 14,000 rpm for 10 min at 4° C. to clarify. Protein estimation is done on the lysate supernatant using a BioRad Dc® protein assay and lysates are diluted in complete lysis/binding buffer from the Ras GTPase Chemi ELISA Kit® (Active Motif, cat. no. 52097). The active KRas ELISA was performed as follows: Glutathione-coated ELISA wells were incubated with diluted RAF1-GST in complete lysis/binding buffer for 1 hr at 4° C. with gentle agitation. Wells are washed 3 times with wash buffer and 100 μg of lysates are added to each well and incubated at RT for 1 hr with mild agitation. The wells are washed an additional 3 times, then primary antibody, diluted in antibody binding buffer, is added to each well. The plates are incubated for 1 hr. The wells are washed 3 more times before adding HRP-conjugated secondary antibody, diluted in antibody binding buffer, to each well. The plates are incubated at RT for 1 hr. ELISA wells are washed 4 times, chemiluminescent reagents is added and then luminescence is read. For pERK Meso Scale Discovery ELISA, 25 μg of protein containing 0.1% SDS is used; for pMEK Meso Scale Discovery ELISA, 50 μg of protein without SDS is used. Meso Scale Discovery Whole Cell Lysate Kits for pERK and pMEK are provided by Meso Scale Discovery.
The tumor samples are collected 4 hr post a single dose. The tumor lysates are prepared and the inhibition of pERK, pMEK, and active KRas is measured as described above.
After a single dose, the tumor samples are harvested at 2, 4, 8, 12 and 24 hr post doing. The tumor lysates are prepared and the inhibition of pERK, pMEK, and active KRas is measured as described above.

SW1463 xenograft = assay: Anti-tumor growth activity, SW1463 colorectal xenograft; type: in vivo; conditions: for Tumor Growth Inhibition (%) or Regression (−%): 28 Day, negative = regression
[2] = read-out: IC50 (μM) in 2 D cell proliferation
[3] = read-out: IC50 (μM) in 3 D spheroid cell proliferation
[4] = Mus musculus, NCI-H358, 2 h, H358 xenograft, time course, 2 hr, read-out: % Inhibition pERK
[5] = Mus musculus, NCI-H358, 4 h, H358 xenograft, time course, 4 hr, read-out: % Inhibition pERK
[6] = Mus musculus, NCI-H358, 4 h, H358 xenograft, 4 hr post dose, read-out: % Inhibition pERK
[7] = Mus musculus, NCI-H358, 8 h, H358 xenograft, time course, 8 hr, read-out: % Inhibition pERK
[8] = Mus musculus, NCI-H358, 12 h, H358 xenograft, time course, 12 hr, read-out: % Inhibition pERK
[9] = Mus musculus, NCI-H358, 24 h, H358 xenograft, time course, 24 hr, read-out: % Inhibition pERK

For `C=CC(=O)N1CCN(c2ncnc3c(F)c(-c4ccc(F)c5sc(N)nc45)c(Cl)cc23)CC1` [Example 1, 1-{4-[7-(2-Amino-7-fluoro-1,3-benzothiazol-4-yl)-6-chloro-8-fluoroquinazolin-4-yl]piperazin-1-yl}prop-2-en-1-one], the IC50 (Calu-1; [2]) was 0.024 µM, the IC50 (Calu-1; [3]) was 0.001 µM and the IC50 (H460; [2]) was 11.6 µM. For the same compound, the IC50 (H460; [3]) was 6.07 µM, the IC50 (H441; [2]) was 16.5 µM and the IC50 (H441; [3]) was 7.89 µM. The “Tumor Growth Inhibition (%) or Regression (−%)” value (from here on “Tumor Growth Inhibition … (−%)”) (H358 xenograft; H358 Lung, 10 mg/kg BID, oral) was −1.98%, the “Tumor Growth Inhibition … (−%)” value (H358 xenograft; H358 Lung, 10 mg/kg QD, oral) was 42.7% and the “Tumor Growth Inhibition … (−%)” value (H358 xenograft; H358 Lung, 30 mg/kg BID, oral) was −74.35%. For the same compound, the “Tumor Growth Inhibition … (−%)” value (H358 xenograft; H358 Lung, 30 mg/kg QD, oral) was −33.98%, the “In Vivo Anti-Tumor Activities” value (H358 xenograft; H358 Lung, Example 1 30 mg/kg QDx28) was −33.4 and the “animal body weight loss” value (H358 xenograft; H358 xenograft mice, 10 or 30 mg/kg once or twice daily for 28 days, oral) was “No significant animal body weight loss was observed”. The “dose to achieve 50% target inhibition (TED50), pERK” value ([1]; H358 xenograft, single dose, 4 hr) was 9.78 mg/kg, the inhibition at 10 mg/kg [1, 4] was 61.7% and the inhibition at 30 mg/kg [1, 4] was 83.1%. For the same compound, the inhibition at 10 mg/kg [1, 5] was 73.5%, the inhibition at 30 mg/kg [1, 5] was 87.3% and the inhibition at 1 mg/kg ([1]; Mus musculus, NCI-H358, 4 h, H358 xenograft, 1 mg/kg single dose, 4 hr post dose) was 5.5%. For the same compound, the inhibition at 3 mg/kg ([1]; Mus musculus, NCI-H358, 4 h, H358 xenograft, 3 mg/kg single dose, 4 hr post dose) was 16.4%, the inhibition at 10 mg/kg [1, 6] was 47.8% and the inhibition at 30 mg/kg [1, 6] was 84.2%. It also gave an inhibition at 100 mg/kg ([1]; Mus musculus, NCI-H358, 4 h, H358 xenograft, 100 mg/kg single dose, 4 hr post dose) of 83.5%, an inhibition at 10 mg/kg [1, 7] of 69.2% and an inhibition at 30 mg/kg [1, 7] of 86.5%. The inhibition at 10 mg/kg [1, 8] was 83%, the inhibition at 30 mg/kg [1, 8] was 77.4% and the inhibition at 10 mg/kg [1, 9] was 45%. It also gave an inhibition at 30 mg/kg [1, 9] of 63.4%, an inhibition at 10 mg/kg ([1]; Mus musculus, NCI-H358, H358 xenograft, from 2-12 hr, read-out: pERK inhibition) of 61 to 83% and an inhibition at 30 mg/kg ([1]; Mus musculus, NCI-H358, H358 xenograft, from 2-24 hr, read-out: pERK inhibition) of 63 to 87%. The EC50 ([1]; Mus musculus, NCI-H358, H358 xenograft, plasma exposure by mass spectrum, read-out: plasma concentration to achieve 50% target inhibition (TEC50), pERK) was 474 nM, the “Tumor Growth Inhibition … (−%)” value (SW1463 xenograft; 15 mg/kg BID) was −27% and the “Tumor Growth Inhibition … (−%)” value (SW1463 xenograft; 30 mg/kg BID) was −47.9%. For the same compound, the “Tumor Growth Inhibition … (−%)” value (SW1463 xenograft; 30 mg/kg QD) was −13.9% and the “In Vivo Anti-Tumor Activities” value (SW1463 xenograft; Example 1 30 mg/kg QDx28) was −21.4.
